The EC50 is the concentration at which the effect is half-maximal.

Active and inactive are the calls of the source. The rule behind the calls is not given here. Bounds are passed on as bounds.

Here are results for eleven compounds from PubChem BioAssay AID651686 (The Scripps Research Institute Molecular Screening Center, 2012).

The test system of this assay is OPRD1 counterscreen cells, luminescence, activation. The experiment in a line: OPRD1 cell luminescence activation counter-screen – dose response, counter-screen for OPRM1-OPRD1 heterodimer activator project, late-stage follow-up (AID 651686). (The purpose of a counterscreen is to sort out artefacts and off-target activity.)

On to `CCOC(=O)C1(Cc2ccccc2)CCN(Cc2cccn2-c2cccnc2)CC1`, for which the EC50 was > 40 µM (inactive).
With `CCOC(=O)C1(Cc2ccccc2)CCN(Cc2cccn2-c2nccs2)CC1` the figure was > 40 µM (inactive); with `CCOC(=O)C1(CC2CCCCO2)CCN(Cc2c(C)cc(C)cc2-n2cccn2)CC1` (stereo unspecified), > 40 µM (inactive); with `CCOC(=O)C1(CCc2ccccc2)CCN(Cc2ccc(NC(C)=O)cc2)CC1`, 1.1 µM.
With `CCOC(=O)C1(CCOc2ccccc2)CCN(Cc2ccc(O)c(OC)c2)CC1` the figure was > 40 µM (inactive).
With `CCOC(=O)C1(CCOc2ccccc2)CCN(Cc2cccn2-c2cccnc2)CC1` the figure was > 40 µM (inactive).
In the case of `CCOC(=O)C1(CCc2ccccc2)CCN(Cc2ccc(OC(C)C)c(C#N)c2)CC1`, the EC50 was > 40 µM (inactive).
With `OCC1(CCc2ccccc2)CCN(Cc2cc(F)ccc2-n2cccn2)CC1` the figure was > 40 µM (inactive).
With `CCOC(=O)C1(CCc2ccccc2)CCN(Cc2cc(C)cc(C)c2)CC1` the figure was > 40 µM (inactive); with `CCOC(=O)C1(CCCc2ccccc2)CCN(Cc2cnn(C)c2)CC1`, > 40 µM (inactive).
With `CCOC(=O)C1(CCc2ccccc2)CCN(Cc2ccccc2C)CC1` the figure was > 40 µM (inactive).
